What was measured:
Design in all cases: scale not given here
[1] = tested on: TRZAWR Wheat, Winter, cv Riband; assay: Postemergence herbicidal evaluation, TRZAWR; type: in vivo, Triticum aestivum; settings: postemergence spray, rated about two-three weeks after treatment
Procedure: (§1) In this evaluation, seedling plants are grown in jiffy flats for about two weeks. The test compounds are dispersed in 80/20 acetone/water mixtures containing 1.0% SUN-IT® II, a methylated seed oil, in sufficient quantities to provide the equivalent of about 0.006 kg to 0.400 kg per hectare of active compound when applied to the plants through a spray nozzle operating at 40 psi for a predetermined time. After spraying, the plants are placed on greenhouse benches and are cared for in accordance with conventional greenhouse procedures. Approximately two - three weeks after treatment, the seedling plants are examined and rated according to the rating system set forth below. Where more than one test is involved for a given compound, the data are averaged.

ORYSAT Rice, Tebonnet [2] = assay: Postemergence herbicidal evaluation, ORYSAT; type: in vivo, Oryza sativa, (L.); settings: postemergence spray, rated about two-three weeks after treatment
Procedure: as §1

ECHOG Barnyardgrass = assay: Postemergence herbicidal evaluation, ECHOG; type: in vivo, Echinochloa crus-galli, (L.) Beau; settings: postemergence spray, rated about two-three weeks after treatment
Procedure: as §1

ORYSAT Rice, Tebonnet [3] = assay: Preemergence herbicidal evaluation, ORYSAT; type: in vivo, Oryza sativa, (L.); settings: preemergence
Text: (§2) The preemergence herbicidal activity of the test compounds of the present invention is exemplified by the following tests in which the seeds of a variety of monocotyledonous and dicotyledonous plants are separately mixed with potting soil and planted on top of approximately one inch of soil in separate pint cups. […] The treated cups are then placed on greenhouse benches, watered and cared for in accordance with conventional greenhouse procedures. From four to five weeks after treatment, the tests are terminated and each cup is examined and rated according to the rating system provided in Example 46.

GALAP Galium = assay: Preemergence herbicidal evaluation, GALAP; type: in vivo, Galium aparine; settings: preemergence
Text: as §2

AMBEL Ragweed, Common = assay: Preemergence herbicidal evaluation, AMBEL; type: in vivo, Ambrosia artemisifolia, L.; settings: preemergence
Text: as §2

CASOB Sicklepod [4] = assay: Preemergence herbicidal evaluation, CASOB; type: in vivo, Cassia obtusifolia, L.; settings: preemergence
Text: as §2

[5] = tested on: IPOHE Morningglory, Ivyleaf; assay: Postemergence herbicidal evaluation, IPOHE; type: in vivo, Ipomoea hederacea, (L.) Jacq.; settings: postemergence spray, rated about two-three weeks after treatment
Procedure: as §1

CASOB Sicklepod [6] = assay: Postemergence herbicidal evaluation, CASOB; type: in vivo, Cassia obtusifolia, L.; settings: postemergence spray, rated about two-three weeks after treatment
Procedure: as §1

ABUTH Velvetleaf = assay: Postemergence herbicidal evaluation, ABUTH; type: in vivo, Abutilon theophrasti, Medic.; settings: postemergence spray, rated about two-three weeks after treatment
Procedure: as §1

GLXMAW Soybean, Williams = assay: Postemergence herbicidal evaluation, GLXMAW; type: in vivo, Glycine max, (L.) Merr. cv Williams; settings: postemergence spray, rated about two-three weeks after treatment
Procedure: as §1

[7] = tested on: TRZAWR Wheat, Winter, cv Riband; assay: Preemergence herbicidal evaluation, TRZAWR; type: in vivo, Triticum aestivum; settings: preemergence
Text: as §2

## COc1ccccc1-n1nnc2cc(F)c(-n3c(=O)cc(C(F)(F)F)n(C)c3=O)cc21 [Example 16, 3-[5-Fluoro-1-(2-Methoxyphenyl)-1H-1,2,3-Benzotriazol-6-yl]-1-Methyl-6-(Trifluoromethyl)-2,4(1H,3H)-Pyrmidinedione]
[1]; 0.008 kg/ha
  Postemergence herbicidal rating TRZAWR: 2.5
[1]; 0.016 kg/ha
  Postemergence herbicidal rating TRZAWR: 3.0
[1]; 0.032 kg/ha
  Postemergence herbicidal rating TRZAWR: 3.5
[1]; 0.062 kg/ha
  Postemergence herbicidal rating TRZAWR: 5.5
ORYSAT Rice, Tebonnet [2]; 0.008 kg/ha
  Postemergence herbicidal rating ORYSAT: 2.5
ORYSAT Rice, Tebonnet [2]; 0.016 kg/ha
  Postemergence herbicidal rating ORYSAT: 3.0
ORYSAT Rice, Tebonnet [2]; 0.032 kg/ha
  Postemergence herbicidal rating ORYSAT: 3.0
ORYSAT Rice, Tebonnet [2]; 0.062 kg/ha
  Postemergence herbicidal rating ORYSAT: 4.0
ECHOG Barnyardgrass; 0.008 kg/ha
  Postemergence herbicidal rating ECHCG: 2.0
ECHOG Barnyardgrass; 0.016 kg/ha
  Postemergence herbicidal rating ECHCG: 2.0
ECHOG Barnyardgrass; 0.032 kg/ha
  Postemergence herbicidal rating ECHCG: 3.0
ECHOG Barnyardgrass; 0.062 kg/ha
  Postemergence herbicidal rating ECHCG: 5.0
ORYSAT Rice, Tebonnet [3]; rate 0.016 kg/ha
  ORYSAT herbicidal rating: 7.0
ORYSAT Rice, Tebonnet [3]; rate 0.032 kg/ha
  ORYSAT herbicidal rating: 7.0
ORYSAT Rice, Tebonnet [3]; rate 0.062 kg/ha
  ORYSAT herbicidal rating: 9.0
ORYSAT Rice, Tebonnet [3]; rate 0.125 kg/ha
  ORYSAT herbicidal rating: 9.0
GALAP Galium; rate 0.016 kg/ha
  GALAP herbicidal rating: 0.0
GALAP Galium; rate 0.032 kg/ha
  GALAP herbicidal rating: 0.0
GALAP Galium; rate 0.062 kg/ha
  GALAP herbicidal rating: 9.0
GALAP Galium; rate 0.125 kg/ha
  GALAP herbicidal rating: 9.0
AMBEL Ragweed, Common; rate 0.016 kg/ha
  AMBEL herbicidal rating: 6.0
AMBEL Ragweed, Common; rate 0.032 kg/ha
  AMBEL herbicidal rating: 9.0
AMBEL Ragweed, Common; rate 0.062 kg/ha
  AMBEL herbicidal rating: 9.0
AMBEL Ragweed, Common; rate 0.125 kg/ha
  AMBEL herbicidal rating: 9.0
CASOB Sicklepod [4]; rate 0.016 kg/ha
  CASOB herbicidal rating: 0.0
CASOB Sicklepod [4]; rate 0.032 kg/ha
  CASOB herbicidal rating: 0.0
CASOB Sicklepod [4]; rate 0.062 kg/ha
  CASOB herbicidal rating: 9.0
CASOB Sicklepod [4]; rate 0.125 kg/ha
  CASOB herbicidal rating: 9.0
[5]; 0.008 kg/ha
  Postemergence herbicidal rating IPOHE: 5.0
[5]; 0.016 kg/ha
  Postemergence herbicidal rating IPOHE: 5.0
[5]; 0.032 kg/ha
  Postemergence herbicidal rating IPOHE: 9.0
[5]; 0.062 kg/ha
  Postemergence herbicidal rating IPOHE: 9.0
CASOB Sicklepod [6]; 0.008 kg/ha
  Postemergence herbicidal rating CASOB: 6.0
CASOB Sicklepod [6]; 0.016 kg/ha
  Postemergence herbicidal rating CASOB: 6.0
CASOB Sicklepod [6]; 0.032 kg/ha
  Postemergence herbicidal rating CASOB: 6.0
CASOB Sicklepod [6]; 0.062 kg/ha
  Postemergence herbicidal rating CASOB: 9.0
ABUTH Velvetleaf; 0.008 kg/ha
  Postemergence herbicidal rating ABUTH: 9.0
ABUTH Velvetleaf; 0.016 kg/ha
  Postemergence herbicidal rating ABUTH: 9.0
ABUTH Velvetleaf; 0.032 kg/ha
  Postemergence herbicidal rating ABUTH: 9.0
ABUTH Velvetleaf; 0.062 kg/ha
  Postemergence herbicidal rating ABUTH: 9.0
GLXMAW Soybean, Williams; 0.008 kg/ha
  Postemergence herbicidal rating GLXMAW: 5.0
GLXMAW Soybean, Williams; 0.016 kg/ha
  Postemergence herbicidal rating GLXMAW: 5.0
GLXMAW Soybean, Williams; 0.032 kg/ha
  Postemergence herbicidal rating GLXMAW: 6.0
GLXMAW Soybean, Williams; 0.062 kg/ha
  Postemergence herbicidal rating GLXMAW: 7.5
[7]; rate 0.016 kg/ha
  TRZAWR herbicidal rating: 6.0
[7]; rate 0.032 kg/ha
  TRZAWR herbicidal rating: 8.0
[7]; rate 0.062 kg/ha
  TRZAWR herbicidal rating: 8.0
[7]; rate 0.125 kg/ha
  TRZAWR herbicidal rating: 9.0

Reference: patent publication US20020111274A1, “1-alkyl-3-[1-(substituted phenyl) benzotriazol-6-yl] uracils” (BASF Aktiengesellschaft, priority 2000, published 2002)
